Key:
Assay in all cases: Glasshouse herbicide test, pre- and post-emergence
Assay type in all cases: in vivo
[1] = system: Alopecurus myosuroides (ALOMY); conditions: 250 g/h, evaluated after 13 days, five-point scale; for percentage damage caused to the plant, ALOMY POST: post-emergence; for percentage damage caused to the plant, ALOMY PRE: pre-emergence
How it was run: (§1)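 Percentage plant damage, scored 13 days after treatment as 5=80-100%, 4=60-79%, 3=40-59%, 2=20-39%, 1=0-19%. Spray of 250 g/h in acetone/water 50:50 plus 0.5% Tween 20 went on one day (pre-emergence) or eight days (post-emergence) after sowing.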

Avena fatua (AVEFA) = conditions: 250 g/h, evaluated after 13 days, five-point scale; for percentage damage caused to the plant, AVEFA POST: post-emergence; for percentage damage caused to the plant, AVEFA PRE: pre-emergence
How it was run: as §1

[2] = system: Echinochloa crus-galli (ECHCG); conditions: 250 g/h, evaluated after 13 days, five-point scale; for percentage damage caused to the plant, ECHCG POST: post-emergence; for percentage damage caused to the plant, ECHCG PRE: pre-emergence
How it was run: as §1

Lolium perenne (LOLPE) = conditions: 250 g/h, evaluated after 13 days, five-point scale; for percentage damage caused to the plant, LOLPE POST: post-emergence; for percentage damage caused to the plant, LOLPE PRE: pre-emergence
How it was run: as §1

Setaria faberi (SETFA) = conditions: 250 g/h, evaluated after 13 days, five-point scale; for percentage damage caused to the plant, SETFA POST: post-emergence; for percentage damage caused to the plant, SETFA PRE: pre-emergence
How it was run: as §1

SMILES | percentage damage caused to the plant, ALOMY POST [1] | percentage damage caused to the plant, ALOMY PRE [1] | percentage damage caused to the plant, AVEFA POST (Avena fatua (AVEFA)) | percentage damage caused to the plant, AVEFA PRE (Avena fatua (AVEFA)) | percentage damage caused to the plant, ECHCG POST [2] | percentage damage caused to the plant, ECHCG PRE [2] | percentage damage caused to the plant, LOLPE POST (Lolium perenne (LOLPE)) | percentage damage caused to the plant, LOLPE PRE (Lolium perenne (LOLPE)) | percentage damage caused to the plant, SETFA POST (Setaria faberi (SETFA)) | percentage damage caused to the plant, SETFA PRE (Setaria faberi (SETFA))
CC#Cc1cc(C)c(C2C(=O)CC3(CCC(NC(=O)c4ccnc(F)c4)CC3)CC2=O)c(C)c1 (centres unmarked) [Compound 2.018] | 5 (5=80-100%) | 4 (4=60-79%) | 5 (5=80-100%) | 5 (5=80-100%) | 5 (5=80-100%) | 5 (5=80-100%) | 5 (5=80-100%) | 5 (5=80-100%) | 5 (5=80-100%) | 5 (5=80-100%)
CC#Cc1cc(C)c(C2C(=O)CC3(CCC(NC(=O)c4ccccc4)CC3)CC2=O)c(C)c1 (centres unmarked) [Compound 2.019] | 5 (5=80-100%) | 5 (5=80-100%) | 5 (5=80-100%) | 5 (5=80-100%) | 5 (5=80-100%) | 5 (5=80-100%) | 5 (5=80-100%) | 5 (5=80-100%) | 5 (5=80-100%) | 5 (5=80-100%)
CC#Cc1cc(C)c(C2C(=O)CC3(CCC(NC(=O)COC)CC3)CC2=O)c(C)c1 (centres unmarked) [Compound 2.020] | 5 (5=80-100%) | 5 (5=80-100%) | 5 (5=80-100%) | 5 (5=80-100%) | 5 (5=80-100%) | 5 (5=80-100%) | 5 (5=80-100%) | 5 (5=80-100%) | 5 (5=80-100%) | 5 (5=80-100%)
CC#Cc1cc(C)c(C2C(=O)CC3(CCC(NC(=O)NC(C)(C)C)CC3)CC2=O)c(C)c1 (centres unmarked) [Compound 2.021] | 5 (5=80-100%) | 5 (5=80-100%) | 5 (5=80-100%) | 4 (4=60-79%) | 5 (5=80-100%) | 5 (5=80-100%) | 5 (5=80-100%) | 5 (5=80-100%) | 5 (5=80-100%) | 5 (5=80-100%)
CC#Cc1cc(C)c(C2C(=O)CC3(CCC(NC(=O)NC(=O)C(C)(C)C)CC3)CC2=O)c(C)c1 (centres unmarked) [Compound 2.022] | 5 (5=80-100%) | 5 (5=80-100%) | 5 (5=80-100%) | 3 (3=40-59%) | 5 (5=80-100%) | 5 (5=80-100%) | 5 (5=80-100%) | 5 (5=80-100%) | 5 (5=80-100%) | 5 (5=80-100%)
CC#Cc1cc(C)c(C2C(=O)CC3(CCC(NC(=O)NC(=O)c4ccccn4)CC3)CC2=O)c(C)c1 (centres unmarked) [Compound 2.023] | 5 (5=80-100%) | 5 (5=80-100%) | 5 (5=80-100%) | 4 (4=60-79%) | 5 (5=80-100%) | 5 (5=80-100%) | 5 (5=80-100%) | 5 (5=80-100%) | 5 (5=80-100%) | 5 (5=80-100%)
CC#Cc1cc(C)c(C2C(=O)CC3(CCC(NC(C)=O)C3)CC2=O)c(C)c1 (centres unmarked) [Compound 2.024] | 5 (5=80-100%) | 5 (5=80-100%) | 5 (5=80-100%) | 5 (5=80-100%) | 5 (5=80-100%) | 5 (5=80-100%) | 5 (5=80-100%) | 5 (5=80-100%) | 5 (5=80-100%) | 5 (5=80-100%)
CC#Cc1cc(C)c(C2C(=O)CC3(CC2=O)CC(NC(C)=O)C3)c(C)c1 (centres unmarked) [Compound 2.025] | 5 (5=80-100%) | 5 (5=80-100%) | 5 (5=80-100%) | 5 (5=80-100%) | 5 (5=80-100%) | 5 (5=80-100%) | 5 (5=80-100%) | 5 (5=80-100%) | 5 (5=80-100%) | 5 (5=80-100%)
CC(=O)NC1CCC2(CC1)CC(=O)C(c1c(C)cc(-c3ccc(F)cc3)cc1C)C(=O)C2 (centres unmarked) [Compound 2.027] | 5 (5=80-100%) | 3 (3=40-59%) | 5 (5=80-100%) | 4 (4=60-79%) | 5 (5=80-100%) | 2 (2=20-39%) | 5 (5=80-100%) | 4 (4=60-79%) | 5 (5=80-100%) | 5 (5=80-100%)
CC(=O)NC1CCC2(CC1)CC(=O)C(c1c(C)cc(-c3ncc(F)cn3)cc1C)C(=O)C2 (centres unmarked) [Compound 2.028] | 5 (5=80-100%) | 5 (5=80-100%) | 5 (5=80-100%) | 4 (4=60-79%) | 5 (5=80-100%) | 5 (5=80-100%) | 5 (5=80-100%) | 5 (5=80-100%) | 5 (5=80-100%) | 5 (5=80-100%)
Cc1cc(-c2ccc(C#N)cn2)cc(C)c1C1C(=O)CC2(CCC(NC(=O)C3CC3)CC2)CC1=O (centres unmarked) [Compound 2.029] | 5 (5=80-100%) | 2 (2=20-39%) | 5 (5=80-100%) | 4 (4=60-79%) | 5 (5=80-100%) | 5 (5=80-100%) | 5 (5=80-100%) | 5 (5=80-100%) | 5 (5=80-100%) | 5 (5=80-100%)

Source: US12319640B2, “Cyclic diones as herbicidal compounds” (SYNGENTA CROP PROTECTION AG, priority 2019, dated 2025)
